A short description of this data set: Percentages of plasma metabolites in human after oral administration of [14C]-Formula I (HPLC radioprofiling of pooled plasma). Format: in vivo. As to the method: Six healthy male human subjects were administered a single 10 mg (free base) oral dose of 4-(3,4-dichloro-phenyl)-2-[2-(4-methyl-piperazin-1-yl)-benzylidene]-thiomorpholin-3-one containing 100 μCi of [^14C]-4-(3,4-dichloro-phenyl)-2-[2-(4-methyl-piperazin-1-yl)-benzylidene]-thiomorpholin-3-one (Lot# 49,800-103-1, specific activity 15.66 mCi/mmol, radiochemical purity >99%). [drawing 9]
a). Blood sufficient to provide approximately 10 mL plasma for 4-(3,4-dichloro-phenyl)-2-[2-(4-methyl-piperazin-1-yl)-benzylidene]-thiomorpholin-3-one metabolite identification was collected in heparinized tubes at the following approximate times: 2, 8, 24, 48, 96, and 192 hours after drug administration. Samples were centrifuged at approximately 4° C. and the plasma was stored in appropriately labeled, screw-capped opaque polypropylene tubes at −20° C. until analysis.
Plasma samples were pooled by human subject separately according to the method published by Raid, et al. (Raid, et al: Pharm. Res. (1991), 8(4), 541-543). Aliquots (1 mL) from each pool were extracted with 5 mL of acetonitrile. The mixtures were vortex-mixed for 3 minutes, sonicated for 30 minutes and then centrifuged for 7 minutes at 20° C. Aliquotes of the supernatant (2×500 μL) were counted to determine recovery. Approximately 95.1% of the radioactivity was recovered in the supernatants. The supernatants were combined according to subject number to two equal sets and dried in the Turbovap at room temperature. One set of the dried residue (six subjects) was reconstituted in 150 μL of 10 mM ammonium acetate (pH 4.0)/methanol/dimethyl sulfoxide (1.5:1.5:1) and aliquots of 100 μL were injected onto HPLC-Arc system for profiling. The other set of dried residues were combined and reconstituted in 300 μL of 10 mM ammonium acetate (pH 4.0)/methanol/dimethyl sulfoxide (1.5:1.5:1) and 90 μL was injected onto HPLC-MS/MS system for metabolite identification.

As to `CN1CCn2c(c(C3SCCN(c4ccc(Cl)c(Cl)c4)C3=O)c3ccccc32)C1` (stereo not shown) [Metabolite M10A], under “human Subject#1, single 10 mg oral dose of [14C]-parent compound”, the “% of Total Radioactivity in Plasma, Subject#1” value is 60.6%. Also, the “% of Total Radioactivity in Plasma, Subject#2” value (human Subject#2, single 10 mg oral dose of [14C]-parent compound) was found to be 57.6%. Also, the “% of Total Radioactivity in Plasma, Subject#3” value (human Subject#3, single 10 mg oral dose of [14C]-parent compound) amounted to 62.8%. Also, the “% of Total Radioactivity in Plasma, Subject#4” value (human Subject#4, single 10 mg oral dose of [14C]-parent compound) stood at 72.2%. For the same molecule, for the setting “human Subject#5, single 10 mg oral dose of [14C]-parent compound”, the “% of Total Radioactivity in Plasma, Subject#5” value was found to be 69.6%. The “% of Total Radioactivity in Plasma, Subject#6” value (human Subject#6, single 10 mg oral dose of [14C]-parent compound) was found to be 68.3%. Moreover, the “% of Total Radioactivity in Plasma, Mean” value (mean of six human subjects, single 10 mg oral dose of [14C]-parent compound) came to 65.2%.
